Data on 15 compounds can be found in patent US20260015337A1 (Trawsfynydd Therapeutics, Inc., priority 2022, published 2026).

Usually IC50 stands for the concentration needed to halve the response being measured.

For this test, the target named is 3CL Protease (Severe acute respiratory syndrome coronavirus 2, UniProt P0DTD1). Description: 3CL Protease enzymatic activity assay (BPS Bioscience Assay Kit #78043-1, fluorescence). The settings on record: Table A; 30 min preincubation, 40 μM substrate, 4 hours at room temperature; read-out: IC50, nM (3CL Protease enzymatic activity). The format is biochemical, SARS-CoV-2. Here is the method: For determination of 3CL Protease enzymatic activity was used Assay Kit of BPS Bioscience, San Diego, CA (Catalog #78043-1).
All samples and controls should be tested in duplicate. • 1) Just before use, dilute 0.5 M DTT 500 times into the 3CL Protease Assay Buffer to obtain a DTT concentration of 1 mM. For example, add 10 μl of 0.5 M DTT to 5 ml of assay buffer. Prepare enough DTT-containing buffer as required for the assay. Store the remaining assay buffer at −20° C. • 2) Thaw the 3CL Protease on ice. Briefly spin the tube containing the enzyme to recover the full content of the tube. Note: 3CL Protease enzyme is sensitive to freeze/thaw cycles. […] Note: The exact concentration and volume of enzyme is lot-specific and will be indicated on the tube. Calculate required dilution from the information in the tube. It may be desirable to dilute the enzyme serially to avoid using large amounts of protease assay buffer for the dilution. • 4) Add 30 μl of diluted 3CL Protease to the wells designated as “Positive Control,” “Inhibitor Control,” and “Test Inhibitor.” Add 30 μl of Assay Buffer (containing 1 mM DTT) to the “Blank” wells. • 5) Dilute the 50 μg GC376 in 200 μl of Assay Buffer to obtain a 500 μM solution. Add 10 μl of GC376 (500 μM) to the wells labeled “Inhibitor Control”. Aliquot and store the remaining solution at −80° C. • 6) Prepare the Test Inhibitor. The final concentration of DMSO in the assay should not exceed 1%. If the Test Inhibitor is dissolved in DMSO, make a 100-fold higher concentration of the compound than the highest desired concentration. Then make a 20-fold dilution in 1× Assay Buffer (containing DTT). At this step the compound concentration is 5-fold higher than the final concentration. If the test inhibitor is dissolved in water, make a 5-fold higher concentration of the test compound than the final desired concentration in the Assay buffer (containing DTT). Add 10 μl of Test Inhibitor to each well designated “Test Inhibitor”. • 7) Diluent Solution (no inhibitor): add 10 μl of assay buffer (if the test compound is water soluble and was diluted in assay buffer) or 10 μl of 5% DMSO diluted in assay buffer (if DMSO was used to dissolve the test inhibitor) to “Blank” and “Positive Control” wells.
• 8) Preincubate for 30 min at room temperature with slow shaking. • 9) Dilute the 25 μl of 3CL Protease substrate (10 mM) in 1.25 ml of the Assay Buffer containing DTT, to make a […] solution. The final concentration of the 3CL Protease substrate in a 50 μl reaction is 40 μM. • 10) Start the reaction by adding 10 μl of the substrate solution to all the wells. Seal the plate with the plate sealer and incubate for 4 hours at room temperature with slow shaking. • 11) Measure the fluorescence intensity in a microtiter plate-reader fluorometer (Tecan Spark Cyto) capable of excitation at a wavelength 360 nm and detection of emission at a wavelength 460 nm. The fluorescence intensity can also be measured kinetically. The “Blank” value is subtracted from all other values. • The % inhibition was then used to calculate the IC50 values.
As to `CC1(C)CCc2[nH]c(=O)c(CC(C#N)NC(=O)[C@@H]3C4[C@H](CN3C(=O)[C@@H](NC(=O)C(F)(F)F)C(C)(C)C)C4(C)C)cc2C1` (stereo in doubt) [Compound 127, (1R,2S,5S)—N-(1-Cyano-2-(6,6-dimethyl-2-oxo-1,2,5,6,7,8-hexahydroquinolin-3-yl)ethyl)-3-((S)-3,3-dimethyl-2-(2,2,2-trifluoroacetamido)butanoyl)-6,6-dimethyl-3-azabicyclo[3.1.0]hexane-2-carboxamide], the concentration for half-maximal inhibition (IC50) lay in the range of 500 to 1000 nM. The figure for `CC1(C)CCc2[nH]c(=O)c(CC(C#N)NC(=O)[C@@H]3C4[C@H](CN3C(=O)[C@@H](NS(C)(=O)=O)C(C)(C)C)C4(C)C)cc2C1` (stereo in doubt) [Compound 128, (1R,2S,5S)—N-(1-Cyano-2-(6,6-dimethyl-2-oxo-1,2,5,6,7,8-hexahydroquinolin-3-yl)ethyl)-3-((S)-3,3-dimethyl-2-(methylsulfonamido)butanoyl)-6,6-dimethyl-3-azabicyclo[3.1.0]hexane-2-carboxamide] is 500 to 1000 nM. The figure for `Cc1cc2cc(CC(C#N)NC(=O)[C@@H]3C4[C@H](CN3C(=O)[C@@H](NC(=O)C(F)(F)F)C(C)(C)C)C4(C)C)c(=O)[nH]c2cc1C` (stereo in doubt) [Compound 145, (1R,2S,5S)—N-(1-cyano-2-(6,7-dimethyl-2-oxo-1,2-dihydroquinolin-3-yl)ethyl)-3-((S)-3,3-dimethyl-2-(2,2,2-trifluoroacetamido)butanoyl)-6,6-dimethyl-3-azabicyclo[3.1.0]hexane-2-carboxamide] is 50 to 100 nM. The figure for `Cc1ccc2cc(CC(C#N)NC(=O)[C@@H]3C4[C@H](CN3C(=O)[C@@H](NC(=O)C(F)(F)F)C(C)(C)C)C4(C)C)c(=O)[nH]c2c1` (stereo in doubt) [Compound 146, (1R,2S,5S)—N-(1-Cyano-2-(7-methyl-2-oxo-1,2-dihydroquinolin-3-yl)ethyl)-3-((S)-3,3-dimethyl-2-(2,2,2-trifluoroacetamido)butanoyl)-6,6-dimethyl-3-azabicyclo[3.1.0]hexane-2-carboxamide] is 50 to 100 nM; for `Cc1ccc2[nH]c(=O)c(C[C@@H](C#N)NC(=O)[C@@H]3C4[C@H](CN3C(=O)[C@@H](NS(C)(=O)=O)C(C)(C)C)C4(C)C)cc2c1` (stereo in doubt) [Compound 147, (1R,2S,5S)—N-[(1S)-1-cyano-2-(6-methyl-2-oxo-1H-quinolin-3-yl)ethyl]-3-[(2S)-2-(methanesulfonamido)-3,3-dimethyl-butanoyl]-6,6-dimethyl-3-azabicyclo[3.1.0]hexane-2-carboxamide] it is below 50 nM.

For `Cc1ccc2[nH]c(=O)c(C[C@H](C#N)NC(=O)[C@@H]3C4[C@H](CN3C(=O)[C@@H](NS(C)(=O)=O)C(C)(C)C)C4(C)C)cc2c1` (stereo in doubt) [Compound 148, (1R,2S,5S)—N-[(1R)-1-cyano-2-(6-methyl-2-oxo-1H-quinolin-3-yl)ethyl]-3-[(2S)-2-(methanesulfonamido)-3,3-dimethyl-butanoyl]-6,6-dimethyl-3-azabicyclo[3.1.0]hexane-2-carboxamide], the IC50 was at least 1000 nM. The figure for `Cc1ccc2[nH]c(=O)c(CC(C#N)NC(=O)[C@@H]3C4[C@H](CN3C(=O)[C@@H](Nc3nc(C)cs3)C(C)(C)C)C4(C)C)cc2c1` (stereo in doubt) [Compound 151, (1R,2S,5S)—N-(1-Cyano-2-(6-methyl-2-oxo-1,2-dihydroquinolin-3-yl)ethyl)-3-((S)-3,3-dimethyl-2-((4-methylthiazol-2-yl)amino)butanoyl)-6,6-dimethyl-3-azabicyclo[3.1.0]hexane-2-carboxamide] is 500 to 1000 nM; for `Cc1ccc2[nH]c(=O)c(CC(C#N)NC(=O)[C@@H]3C4[C@H](CN3C(=O)[C@@H](Nc3ncc(C)s3)C(C)(C)C)C4(C)C)cc2c1` (stereo in doubt) [Compound 152, (1R,2S,5S)—N-(1-Cyano-2-(6-methyl-2-oxo-1,2-dihydroquinolin-3-yl)ethyl)-3-((S)-3,3-dimethyl-2-((5-methylthiazol-2-yl)amino)butanoyl)-6,6-dimethyl-3-azabicyclo[3.1.0]hexane-2-carboxamide] it is 100 to 250 nM; for `Cc1ccc2[nH]c(=O)c(CC(C#N)NC(=O)[C@@H]3C4[C@H](CN3C(=O)[C@@H](Nc3nccc(C(F)(F)F)n3)C(C)(C)C)C4(C)C)cc2c1` (stereo in doubt) [Compound 156, (1R,2S,5S)—N-(1-Cyano-2-(6-methyl-2-oxo-1,2-dihydroquinolin-3-yl)ethyl)-3-((S)-3,3-dimethyl-2-((4-(trifluoromethyl)pyrimidin-2-yl)amino)butanoyl)-6,6-dimethyl-3-azabicyclo[3.1.0]hexane-2-carboxamide] it is at least 1000 nM. The same measure for `Cc1ccc2[nH]c(=O)c(C[C@@H](C#N)NC(=O)[C@@H]3C4[C@H](CN3C(=O)[C@@H](Nc3nc(C)cs3)C(C)(C)C)C4(C)C)cc2c1` (stereo in doubt) [Compound 157, (1R,2S,5S)—N—((S)-1-Cyano-2-(6-methyl-2-oxo-1,2-dihydroquinolin-3-yl)ethyl)-3-((S)-3,3-dimethyl-2-((4-methylthiazol-2-yl)amino)butanoyl)-6,6-dimethyl-3-azabicyclo[3.1.0]hexane-2-carboxamide]: 250 to 500 nM; for `Cc1ccc2[nH]c(=O)c(C[C@@H](C#N)NC(=O)[C@@H]3C4[C@H](CN3C(=O)[C@@H](Nc3ncc(C)s3)C(C)(C)C)C4(C)C)cc2c1` (stereo in doubt) [Compound 158, (1R,2S,5S)—N—((S)-1-Cyano-2-(6-methyl-2-oxo-1,2-dihydroquinolin-3-yl)ethyl)-3-((S)-3,3-dimethyl-2-((5-methylthiazol-2-yl)amino)butanoyl)-6,6-dimethyl-3-azabicyclo[3.1.0]hexane-2-carboxamide]: 50 to 100 nM. The same measure for `Cc1ccc2[nH]c(=O)c(C[C@@H](C#N)NC(=O)[C@@H]3C4[C@H](CN3C(=O)[C@@H](Nc3ccnc(C)n3)C(C)(C)C)C4(C)C)cc2c1` (stereo in doubt) [Compound 159, (1R,2S,5S)—N—((S)-1-Cyano-2-(6-methyl-2-oxo-1,2-dihydroquinolin-3-yl)ethyl)-3-((S)-3,3-dimethyl-2-((2-methylpyrimidin-4-yl)amino)butanoyl)-6,6-dimethyl-3-azabicyclo[3.1.0]hexane-2-carboxamide]: at least 1000 nM. In the case of `Cc1ccc2[nH]c(=O)c(C[C@@H](C#N)NC(=O)[C@@H]3C4[C@H](CN3C(=O)[C@@H](Nc3nccc(C)n3)C(C)(C)C)C4(C)C)cc2c1` (stereo in doubt) [Compound 160, (1R,2S,5S)—N—((S)-1-Cyano-2-(6-methyl-2-oxo-1,2-dihydroquinolin-3-yl)ethyl)-3-((S)-3,3-dimethyl-2-((4-methylpyrimidin-2-yl)amino)butanoyl)-6,6-dimethyl-3-azabicyclo[3.1.0]hexane-2-carboxamide], the IC50 was at least 1000 nM. The figure for `Cc1ccc2[nH]c(=O)c(C[C@@H](C#N)NC(=O)[C@@H]3C4[C@H](CN3C(=O)[C@@H](Nc3ccnc(C(F)(F)F)n3)C(C)(C)C)C4(C)C)cc2c1` (stereo in doubt) [Compound 161, (1R,2S,5S)—N—((S)-1-Cyano-2-(6-methyl-2-oxo-1,2-dihydroquinolin-3-yl)ethyl)-3-((S)-3,3-dimethyl-2-((2-(trifluoromethyl)pyrimidin-4-yl)amino)butanoyl)-6,6-dimethyl-3-azabicyclo[3.1.0]hexane-2-carboxamide] is at least 1000 nM; for `Cc1ccc2[nH]c(=O)c(CC(C#N)NC(=O)[C@@H]3C4[C@H](CN3C(=O)[C@@H](NC(=O)OC(C)(C)C)C(C)(C)C)C4(C)C)cc2c1` (stereo in doubt) [Compound 171, tert-Butyl ((2S)-1-((1R,2S,5S)-2-((1-cyano-2-(6-methyl-2-oxo-1,2-dihydroquinolin-3-yl)ethyl)carbamoyl)-6,6-dimethyl-3-azabicyclo[3.1.0]hexan-3-yl)-3,3-dimethyl-1-oxobutan-2-yl)carbamate] it is 250 to 500 nM.
